According to patent US20070031520A1, “Method of using ajoene as alcohol dehydrogenase inhibitor, composition for removing hangover comprising ajoene and method of preparing the same” (priority 2005, published 2007):

System: human ADH
Assay: cloned human ADH assay (NADH absorbance at 340 nm)
Format: biochemical
Conditions: for ADH inhibitory activity (%): 0.1 M glycine buffer pH 10, 2.4 mM NAD+, 33 mM ethanol
Procedure: ADH inhibitory activity of ajoene obtained in Example 1 was examined by means of a cloned human ADH assay wherein human ADH is treated with ajoene at different concentrations, and the results are shown in Table 1 below. Here, the ADH assay employed 0.1 M glycine buffer (pH 10) as a reaction buffer and 2.4 mM NAD^+ and 33 mM ethanol in a subtrate. ADH inhibitory activity was determined by measuring the absorbance of NADH at 340 nm using a microplate reader.

**Q.** What does the source list for `C=CCSSC=CC[S+]([O-])CC=C` (stereo not shown) [ajoene, 4,5,9-trithiadodeca-1,6,11-triene-9-oxide]?
**A.** ADH inhibitory activity (%) (ajoene 0.1 μg/ml): 0%; ADH inhibitory activity (%) (ajoene 0.9 μg/ml): 50%; ADH inhibitory activity (%) (ajoene 1 μg/ml): 60%; ADH inhibitory activity (%) (ajoene 10 μg/ml): 85%; ADH inhibitory activity (%) (ajoene 50 μg/ml): 100%; ADH inhibitory activity (%) (ajoene 100 μg/ml): 100%; inhibitory concentration of 50% (IC50) on ADH activity (cloned human ADH, from Table 1): 0.9 µg/mL
